The values that follow come from patent US12295938B2, “Composition for treating castration-resistant prostate cancer, comprising quassinoids” (SAMSUNG LIFE PUBLIC WELFARE FOUNDATION, priority 2019, dated 2025).

Holding throughout (type): cell-based
The subject of experiment [1] is AR-V7 transcriptional activity. The experiment in a line: MMTV-LUC luciferase reporter assay in 22RV1 cells, DHT− (screening and IC50). To be noted: for activity at 0.1 µM / activity at 1 µM / activity at 10 µM / IC50: Homo sapiens; for activity at 0.1 µM / activity at 1 µM / activity at 10 µM / IC50 / MMTV-LUC activity (%) DHT−: 22RV1 cells; for activity at 0.1 µM / activity at 1 µM / activity at 10 µM / MMTV-LUC activity (%) DHT−: no DHT, control = 100; for IC50: AR-V7 transcriptional activity; for potency as inhibitor of AR/AR-V7 transcriptional activity compared with ailanthone: in both CRPC 22RV1 cells and androgen-dependent LNCaP cells.
Method: (§1) A library of antimalarial agents was screened using a luciferase reporter assay to measure changes in AR/AR-V7 transcriptional activity.
(§2) Screening was made primarily with 10 μM of each drug.

A further experiment has as its system 22RV1 cells. In words: MTT cell growth inhibition assay, 22RV1. To be noted: Homo sapiens, read-out: IC50 (22RV1 cell growth).
Experiment [2] concerns hormone-dependent AR transcriptional activity. The experiment in a line: MMTV-LUC reporter assay in LNCaP cells, hormone-dependent AR transcriptional activity. To be noted: Homo sapiens, read-out: IC50 (nM) DHT+. (In general: A reporter such as luciferase makes a cellular process visible.)
The subject of experiment [3] is AR transcriptional activity. The experiment in a line: MMTV-LUC luciferase reporter assay in 22RV1 cells, DHT+ (screening and IC50). To be noted: for activity at 0.1 µM / activity at 1 µM / activity at 10 µM / IC50: Homo sapiens; for activity at 0.1 µM / activity at 1 µM / activity at 10 µM / MMTV-LUC activity (%) DHT+: with DHT, control = 100; for IC50: AR transcriptional activity.
Method: as §1, §2

As usually defined, the IC50 is the point on the concentration scale where inhibition reaches its midpoint.

Where a name gives a salt, the structure may show the parent alone. Read-outs that look alike come from different tables or passages of the source.

With `COC(=O)[C@@]12OC[C@]34[C@H]([C@@H](O)[C@@H]1O)[C@@]1(C)CC(=O)C(O)=C(C)[C@@H]1C[C@H]3OC(=O)[C@H](OC(=O)CC(C)C)[C@@H]24` [Bruceine A, bruceine A], the activity at 0.1 µM in experiment [1] (0.1 uM) worked out at 19.5 ± 20.7%; in experiment [3] (0.1 uM) it was 5.7 ± 1%. For the same compound, the values for the activity at 1 µM in experiment [1] (1 uM) and in experiment [3] (1 uM) were 13.5 ± 1.7% and 3.6 ± 0.2%, respectively. Moreover, the activity at 10 µM in experiment [1] (10 uM) amounted to 11 ± 2.5%; in experiment [3] (10 uM) it was 2.8 ± 0.2%. Moreover, the 50% inhibitory concentration (IC50) in experiment [1] turned out to be 14.3 nM; in the experiment with 22RV1 cells (22Rv1, 72 h) it was 16.5 nM; in experiment [2] (LNCaP) it was 15 nM; in experiment [3], 9.45 nM. The “potency as inhibitor of AR/AR-V7 transcriptional activity compared with ailanthone” value in experiment [1] is “more potent inhibitors against AR/AR-V7 transcriptional activity”.
Take `C[C@H](CC(=O)C[C@@H](C)[C@H]1C[C@H](O)[C@@]2(C)C3=C(C(=O)C[C@]12C)[C@@]1(C)CCC(=O)C(C)(C)[C@@H]1C[C@@H]3O)C(=O)O` [Ganoderic acid A]: the “MMTV-LUC activity (%) DHT−” value in experiment [1] (10 uM) came out at 140.0 ± 3.8%. Also, in experiment [3] (10 uM), the “MMTV-LUC activity (%) DHT+” value is given as 148.9 ± 2.8%.
Take `C[C@H]1COC2=C1C(=O)C(=O)c1c2ccc2c1CCCC2(C)C` [Cryptotanshinone]: the activity at 10 µM is 70.3 ± 3.2% in experiment [1] (10 uM) and 62.7 ± 15.3% in experiment [3] (10 uM).
The corresponding values for `C[C@@H]1CC[C@H]2[C@@H](C)C(=O)O[C@@H]3O[C@@]4(C)CC[C@@H]1[C@]32OO4` [Artemisinin] are 107 ± 4.3% and 156 ± 17.6%.
In the case of Bruceanic acid C, in experiment [1] (10 uM), the “MMTV-LUC activity (%) DHT−” value turned out to be 68.5 ± 6.3%. Besides, the “MMTV-LUC activity (%) DHT+” value in experiment [3] (10 uM) was 85.8 ± 14.2%.
Consider `COC(=O)[C@@]12OC[C@]34[C@H]([C@@H](O)[C@@H]1O)[C@@]1(C)CC(=O)C(O)=C(C)[C@@H]1C[C@H]3OC(=O)[C@H](OC(=O)C=C(C)C)[C@@H]24` [Brusatol, brusatol], for which the results for the activity at 0.1 µM in experiment [1] (0.1 uM) and in experiment [3] (0.1 uM) were 18.9 ± 20.2% and 5.7 ± 0.6%, respectively. The activity at 1 µM in experiment [1] (1 uM) amounted to 14 ± 1.3%; in experiment [3] (1 uM), 4 ± 0.5%. Further, the activity at 10 µM in experiment [1] (10 uM) turned out to be 10.3 ± 2.7%; in experiment [3] (10 uM) it was 3.2 ± 0.2%. In addition, the concentration for half-maximal inhibition (IC50) in experiment [1] was 14 nM; in the experiment on 22RV1 cells (22RV1 cells, MTT, 72 hours) it was 15.1 nM; in experiment [2] (LNCaP cells) it was 11.7 nM; in experiment [3], 6.23 nM. Further, the “potency as inhibitor of AR/AR-V7 transcriptional activity compared with ailanthone” value in experiment [1] is “more potent inhibitors against AR/AR-V7 transcriptional activity”.
With Yadanziolide C, the entries for the “MMTV-LUC activity (%) DHT−” value in experiment [1] (0.1 uM), in experiment [1] (1 uM) and in experiment [1] (10 uM) were 80.5 ± 2.9%, 17.4 ± 3.1% and 6.0 ± 0.7%, respectively. In addition, the “MMTV-LUC activity (%) DHT+” value is on record as 92.5 ± 0.9% in experiment [3] (0.1 uM), 12.1 ± 2.0% in experiment [3] (1 uM) and 1.1 ± 0.1% in experiment [3] (10 uM).
In the case of `COC(=O)[C@]12OC[C@@]34[C@@H](CC5=C(C)C(=O)C(O)=C[C@]5(C)[C@H]3[C@@H](O)[C@@H]1O)OC(=O)[C@H](OC(=O)CC(C)C)[C@@H]24` [Dehydrobruceine A], the “MMTV-LUC activity (%) DHT−” value in experiment [1] (10 uM) stood at 133.8 ± 14.5%. The “MMTV-LUC activity (%) DHT+” value in experiment [3] (10 uM) amounted to 164.2 ± 16.0%.
Turning to `CC1=CC(=O)[C@@H](O)[C@]2(C)[C@H]3[C@@H](O)[C@H](O)[C@]4(C)OC[C@@]35[C@@H](C[C@@H]12)OC(=O)[C@H](O)[C@]54O` [Bruceine D], the “MMTV-LUC activity (%) DHT−” value in experiment [1] (0.1 uM) was found to be 46.0 ± 6.4%; in experiment [1] (1 uM) it was 7.0 ± 1.2%; in experiment [1] (10 uM), 7.9 ± 1.3%. The “MMTV-LUC activity (%) DHT+” value in experiment [3] (0.1 uM) is listed as 32.6 ± 6.2%; in experiment [3] (1 uM), 2.0 ± 0.2%; in experiment [3] (10 uM) it was 1.1 ± 0.1%.
Consider `COc1c(O)cc2c(c1O)C(=O)c1c(cc(C)c(O)c1OC)C2=O` [Aurantio-obtusin], for which the results for the activity at 10 µM in experiment [1] (10 uM) and in experiment [3] (10 uM) were 119 ± 27.4% and 124 ± 2.2%, respectively.
For `C[C@H]1[C@@H](O)O[C@@H]2O[C@@]3(C)CC[C@H]4[C@H](C)CC[C@@H]1[C@@]24OO3` [Dihydroartemisinin], in that order: 115 ± 10.1% and 138 ± 7%.
For `CC(C)=CC[C@H](OC(=O)C=C(C)C)C1=CC(=O)c2c(O)ccc(O)c2C1=O` [β, β-Dimethylacrylalkannin], the “MMTV-LUC activity (%) DHT−” value in experiment [1] (1 uM) was found to be 100.2 ± 11.4%; in experiment [1] (10 uM), 33.3 ± 3.2%. Besides, the “MMTV-LUC activity (%) DHT+” value in experiment [3] (1 uM) worked out at 107.9 ± 7.0%; in experiment [3] (10 uM), 19.9 ± 3.5%.
Regarding `CC1=CC(=O)[C@@H](O)[C@]2(C)[C@H]3[C@@H](O)[C@H](O)[C@]4(CO)OC[C@@]35[C@@H](C[C@@H]12)OC(=O)[C@H](O)[C@]54O` [Yadanziolide A], the figures for the “MMTV-LUC activity (%) DHT−” value in experiment [1] (1 uM) and in experiment [1] (10 uM) were 54.1 ± 13.0% and 8.0 ± 0.6%, respectively. Further, the results for the “MMTV-LUC activity (%) DHT+” value in experiment [3] (1 uM) and in experiment [3] (10 uM) were 58.3 ± 10.9% and 4.1 ± 0.2%, respectively.
As to `CCN(CC)Cc1cc(Nc2ccnc3cc(Cl)ccc23)ccc1O` [Amodiaquine dihydrochloride dihydrate], the results for the activity at 10 µM in experiment [1] (10 uM) and in experiment [3] (10 uM) were 91.6 ± 2.9% and 102 ± 4.3%, respectively.
Regarding `C=C1[C@@H](O)[C@]2(O)OC[C@]34[C@H]2[C@@]2(C)[C@H](O)C(=O)C=C(C)[C@@H]2C[C@H]3OC(=O)[C@H](O)[C@@]14O` [Eurycomanone], the values for the activity at 0.1 µM in experiment [1] (0.1 uM) and in experiment [3] (0.1 uM) were 128 ± 12% and 108 ± 4.7%, respectively. The results for the activity at 1 µM in experiment [1] (1 uM) and in experiment [3] (1 uM) were 59.1 ± 7.6% and 51.3 ± 4.6%, respectively. Moreover, the activity at 10 µM amounted to 17.7 ± 2.7% in experiment [1] (10 uM) and 6.7 ± 0.5% in experiment [3] (10 uM).
As to `CO[C@H]1O[C@@H]2O[C@@]3(C)CC[C@H]4[C@H](C)CC[C@@H]([C@H]1C)[C@@]24OO3` [Artemether], the activity at 10 µM in experiment [1] (10 uM) was determined as 97.5 ± 19.5%; in experiment [3] (10 uM), 138 ± 8.8%.
